In patent US20170304306A1, “SELECTIVE NaV1.7 INHIBITORS FOR THE TREATMENT OF DIABETES” (CHROMOCELL CORPORATION, priority 2014, published 2017):
Each block holds one compound with its values, some of them ahead of it.

Assays:
NaV1.5 = biological target: T1, NaV1.5 (Homo sapiens, UniProt Q14524); experiment: Patchliner electrophysiological in-vitro assay, NaV1.5; assay type: cell-based; conditions: Patchliner patch clamp, HEK293 cells
T1 construct: expressed in transfected cells; host or cells: HEK293
Experimental: (§1) In vitro assays were performed in recombinant cell line that stably express a heterotrimeric protein of interest from an introduced nucleic acid encoding the alpha subunit (hNav1.7, SCN9A), the beta subunit (SCNB1) and the beta subunit (SCNB2). The cell line was engineered using Human Embryonic Kidney 293 cells (HEK293) as host background. Additional cell lines stably expressing recombinant human NaVs (e.g., NaV1.1, NaV1.2, NaV1.3, NaV1.4, NaV1.5, NaV1.6, NaV1.7 or NaV1.8) alpha subunit alone or in combination with various beta subunits in Chinese Hamster Ovary (CHO) or HEK293 cells as a host background can also be used in in vitro assays.
The recording of sodium current from stable HEK293 cell lines expressing NaV1.7 or NaV1.5 or CHO cell lines expressing NaV1.1, NaV1.2, NaV1.3, NaV1.4, NaV1.6 or NaV1.8 was done on a Patchliner® instrument, Nanion Technologies. The Patchliner® is a fully automated bench-top patch clamp platform and can record simultaneously from up to eight single cells with GΩ seals.
For patch-clamp experiments, cells were grown under standard culturing conditions in Dulbecco's Modified Eagles medium supplemented with 10% fetal bovine serum, glutamine and HEPES. Cells were harvested and kept in suspension for up to 4 hours with no significant change in quality or ability to patch. Whole cell patch clamp recordings were conducted according to Nanion's standard procedure for the Patchliner®. Experiments were conducted at room temperature.
Voltage protocols were designed to establish: 1) peak current amplitude (Imax), 2) test potential (Vmax) and 3) half-inactivation potential (V1/2) for each of the eight individual cells. To determine V1/2, a standard steady-state inactivation protocol was executed using a series of fifteen 500 ms depolarizing pre-pulses in 10 mV increments (starting at −130 mV) and immediately followed by a 10 ms test pulse to Vmax. To estimate test compound affinity to the inactivated state of sodium channel (Ki), the holding potential for each cell was set automatically to the V1/2 calculated from a steady-state inactivation data. The current was activated with the following voltage protocol: holding at V1/2 for 2-5 seconds, return to the −120 mV for 5-10 ms to relieve fast inactivation, stepping to test potential (Vmax) for 10-20 ms. This voltage protocol was repeated every 10 seconds to establish the baseline with 2-3 buffer additions followed by the test compound addition. The dose-dependent inhibition was analyzed using Nanion's Data Analysis Package.

NaV1.3 [1] = biological target: T2, NaV1.3 (Homo sapiens, UniProt Q9NY46); experiment: Assay similar to Patchliner assay using CHO or HEK293 cell lines expressing NaV1.3; assay type: cell-based; design: expressed in transfected cells; host or cells: CHO or HEK293
NaV1.4 = biological target: T3, NaV1.4 (Homo sapiens, UniProt P35499); experiment: Patchliner electrophysiological in-vitro assay, NaV1.4; assay type: cell-based; conditions: Patchliner patch clamp, CHO cells
T3 construct: expressed in transfected cells; host or cells: CHO
Experimental: as §1
(§2) The recording of sodium current from stable HEK293 cell lines expressing NaV1.7 or NaV1.5 or CHO cell lines expressing NaV1.1, NaV1.2, NaV1.3, NaV1.4, NaV1.6 or NaV1.8 was done on a Patchliner® instrument, Nanion Technologies. […]
(§3) Voltage protocols were designed to establish: 1) peak current amplitude (Imax), 2) test potential (Vmax) and 3) half-inactivation potential (V1/2) for each of the eight individual cells. […] To estimate test compound affinity to the inactivated state of sodium channel (Ki), the holding potential for each cell was set automatically to the V1/2 calculated from a steady-state inactivation data. […] The dose-dependent inhibition was analyzed using Nanion's Data Analysis Package.

[2] = test system: streptozotocin-induced diabetic rats; experiment: Anti-diabetic effect in rat streptozotocin-induced model for diabetes; assay type: in vivo, Sprague-Dawley rats; conditions: STZ diabetic rats
Experimental: 250-350 g male Sprague-Dawley rats from appropriate animal resources were used. Type I diabetes was induced by a single injection, (intraperitoneally, intravenously or intramuscularly) of 50-100 mg/kg of streptozotocin (STZ, Sigma Chemicals, St. Louis, Mo. or VWR) freshly dissolved in sodium citrate (0.01 M, pH 4.5). Sham animals were given either saline or same vehicle injection. Following a wait time of about two days, inducement of diabetes was confirmed in STZ-injected rats by measuring the plasma glucose concentrations in blood samples from the tail vein after a fast of 6 hours. The glucose level was assayed using a mini glucose monitor (kit for AlphaTRAK 2 meter, available from Abbott Laboratories). Screening for hyperglycemia in STZ-injected animals was done, with only animals with a final blood glucose level ≧300 mg/dl being selected for the study. Glucose levels in the sham animals remained normal. Other parameters (water intake, food intake, and bodyweight) were monitored before the treatment with a test compound and after the cessation of the treatment.
The baseline glucose levels, daily food and water intake and behavioral tests (von Frey, paw pressure and plantar tests) were measured for each animal once weekly for 28 weeks, and once every 2-4 weeks for an additional 28-30 weeks. At a selected week (started from week 6) for a compound test, diabetic rats were divided into two test groups: a vehicle control group and a test compound treated group (n=10 each group). A sham group (saline only without STZ i.p. injection, n=10) was added as a normal, non-diabetic control group. To minimize animal stress associated with repeated daily handling, the compound treated diabetic group of animals received the test compound (compound 49) at a daily dose of 60 mg/kg in their drinking water containing 2% PEG600 and 1% glycofurol (the test compound concentration in the drinking water was based on the individual animal's average daily water consumption as determined the pre-dosing period, which averaged 0.1-0.11 mg/ml). The vehicle control group received drinking water containing 2% PEG600 and 1% glycofurol without the test compound. The treatment continued for 9 days. On day 10 drinking water with test compound or vehicle (2% PEG600 and 1% glycofurol) was replaced with plain drinking water in all groups. The monitoring of glucose levels, food and water intake as well as behavior tests continued for additional 28-30 weeks.

NaV1.8 = biological target: T4, NaV1.8 (Homo sapiens, UniProt Q9Y5Y9); experiment: Patchliner electrophysiological in-vitro assay, NaV1.8; assay type: cell-based; conditions: Patchliner patch clamp, CHO cells
T4 construct: expressed in transfected cells; host or cells: CHO
Experimental: as §1, §2, §3

NaV1.1 = biological target: T5, NaV1.1 (Homo sapiens, UniProt P35498); experiment: Patchliner electrophysiological in-vitro assay, NaV1.1; assay type: cell-based; conditions: Patchliner patch clamp, CHO cells
T5 construct: expressed in transfected cells; host or cells: CHO
Experimental: as §1, §2, §3

NaV1.3 [3] = biological target: T2, NaV1.3; experiment: Patchliner electrophysiological in-vitro assay, NaV1.3; assay type: cell-based; design: expressed in transfected cells; host or cells: CHO; conditions: Patchliner patch clamp, CHO cells; read-out: NaV 1.3 IC50
Experimental: as §1, §2, §3

NaV1.7 = biological target: T6, NaV1.7 (Homo sapiens, UniProt Q15858); experiment: Patchliner electrophysiological in-vitro assay, NaV1.7; assay type: cell-based; conditions: Patchliner patch clamp, HEK293 cells, holding at V1/2
T6 construct: expressed in transfected cells; host or cells: HEK293
Experimental: as §1, §2, §3

hNaV1.7 = biological target: T7, hNaV1.7 (Homo sapiens, UniProt Q15858); experiment: FDSS membrane potential in-vitro assay; assay type: cell-based; conditions: HEK293 cells expressing hNaV1.7 α, β1 and β2, veratridine and scorpion venom stimulation, read-out: NaV1.7 IC50
T7 construct: expressed in transfected cells; host or cells: HEK293

[4] = 60 mg/kg/day in drinking water for 9 days, after treatment stopped, continues through week 52

T1 sequence (Q14524 whole entry): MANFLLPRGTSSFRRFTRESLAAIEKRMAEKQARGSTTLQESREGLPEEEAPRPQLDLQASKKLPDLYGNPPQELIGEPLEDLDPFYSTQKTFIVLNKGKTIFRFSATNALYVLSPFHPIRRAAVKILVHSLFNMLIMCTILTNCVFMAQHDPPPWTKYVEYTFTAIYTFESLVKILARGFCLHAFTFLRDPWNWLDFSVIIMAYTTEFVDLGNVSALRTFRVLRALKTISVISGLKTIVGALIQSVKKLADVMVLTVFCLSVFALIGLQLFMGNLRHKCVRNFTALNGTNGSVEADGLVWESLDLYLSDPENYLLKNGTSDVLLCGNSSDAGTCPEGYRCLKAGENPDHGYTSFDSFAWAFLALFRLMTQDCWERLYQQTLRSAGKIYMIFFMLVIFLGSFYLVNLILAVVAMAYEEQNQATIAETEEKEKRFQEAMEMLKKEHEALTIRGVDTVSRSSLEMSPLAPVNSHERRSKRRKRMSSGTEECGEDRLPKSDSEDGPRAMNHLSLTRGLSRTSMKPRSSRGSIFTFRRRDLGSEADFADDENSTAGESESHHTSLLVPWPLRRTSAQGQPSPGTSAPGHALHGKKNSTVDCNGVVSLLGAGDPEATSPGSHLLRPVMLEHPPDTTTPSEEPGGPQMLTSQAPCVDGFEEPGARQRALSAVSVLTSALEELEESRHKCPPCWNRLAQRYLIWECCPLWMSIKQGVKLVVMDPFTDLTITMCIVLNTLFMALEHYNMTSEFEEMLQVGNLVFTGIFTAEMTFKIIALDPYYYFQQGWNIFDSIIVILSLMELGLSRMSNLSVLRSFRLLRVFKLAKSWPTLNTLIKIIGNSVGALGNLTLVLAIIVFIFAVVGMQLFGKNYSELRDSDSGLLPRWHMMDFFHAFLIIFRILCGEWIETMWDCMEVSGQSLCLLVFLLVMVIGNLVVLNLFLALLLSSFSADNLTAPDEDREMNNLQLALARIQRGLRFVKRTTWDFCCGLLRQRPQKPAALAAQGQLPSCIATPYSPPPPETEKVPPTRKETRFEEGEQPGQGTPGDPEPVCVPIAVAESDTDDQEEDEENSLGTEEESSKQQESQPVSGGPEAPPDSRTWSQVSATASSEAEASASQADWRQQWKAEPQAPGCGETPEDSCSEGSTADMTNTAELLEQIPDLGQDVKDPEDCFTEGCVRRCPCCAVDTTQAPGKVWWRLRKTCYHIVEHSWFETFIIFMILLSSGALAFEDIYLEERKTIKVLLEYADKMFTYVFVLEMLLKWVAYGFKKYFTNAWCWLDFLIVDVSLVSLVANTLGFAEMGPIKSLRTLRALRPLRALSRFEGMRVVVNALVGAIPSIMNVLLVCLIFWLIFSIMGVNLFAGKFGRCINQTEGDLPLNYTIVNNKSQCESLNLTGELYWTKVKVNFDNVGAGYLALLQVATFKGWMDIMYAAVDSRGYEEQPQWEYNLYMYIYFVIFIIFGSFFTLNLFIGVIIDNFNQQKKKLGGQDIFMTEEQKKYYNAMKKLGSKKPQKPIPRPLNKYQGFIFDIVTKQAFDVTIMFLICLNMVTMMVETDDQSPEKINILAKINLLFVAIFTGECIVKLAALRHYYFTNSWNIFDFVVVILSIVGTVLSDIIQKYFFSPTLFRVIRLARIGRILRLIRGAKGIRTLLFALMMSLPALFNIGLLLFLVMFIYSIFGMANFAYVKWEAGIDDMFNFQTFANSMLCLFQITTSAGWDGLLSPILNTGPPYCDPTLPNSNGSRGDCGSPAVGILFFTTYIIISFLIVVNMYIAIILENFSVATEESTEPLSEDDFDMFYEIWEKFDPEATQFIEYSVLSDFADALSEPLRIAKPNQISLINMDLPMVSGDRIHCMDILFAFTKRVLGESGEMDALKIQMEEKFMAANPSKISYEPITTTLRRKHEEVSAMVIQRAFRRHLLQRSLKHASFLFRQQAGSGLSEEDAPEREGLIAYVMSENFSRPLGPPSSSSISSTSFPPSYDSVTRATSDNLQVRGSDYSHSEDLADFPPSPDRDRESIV
T3 sequence (P35499 whole entry): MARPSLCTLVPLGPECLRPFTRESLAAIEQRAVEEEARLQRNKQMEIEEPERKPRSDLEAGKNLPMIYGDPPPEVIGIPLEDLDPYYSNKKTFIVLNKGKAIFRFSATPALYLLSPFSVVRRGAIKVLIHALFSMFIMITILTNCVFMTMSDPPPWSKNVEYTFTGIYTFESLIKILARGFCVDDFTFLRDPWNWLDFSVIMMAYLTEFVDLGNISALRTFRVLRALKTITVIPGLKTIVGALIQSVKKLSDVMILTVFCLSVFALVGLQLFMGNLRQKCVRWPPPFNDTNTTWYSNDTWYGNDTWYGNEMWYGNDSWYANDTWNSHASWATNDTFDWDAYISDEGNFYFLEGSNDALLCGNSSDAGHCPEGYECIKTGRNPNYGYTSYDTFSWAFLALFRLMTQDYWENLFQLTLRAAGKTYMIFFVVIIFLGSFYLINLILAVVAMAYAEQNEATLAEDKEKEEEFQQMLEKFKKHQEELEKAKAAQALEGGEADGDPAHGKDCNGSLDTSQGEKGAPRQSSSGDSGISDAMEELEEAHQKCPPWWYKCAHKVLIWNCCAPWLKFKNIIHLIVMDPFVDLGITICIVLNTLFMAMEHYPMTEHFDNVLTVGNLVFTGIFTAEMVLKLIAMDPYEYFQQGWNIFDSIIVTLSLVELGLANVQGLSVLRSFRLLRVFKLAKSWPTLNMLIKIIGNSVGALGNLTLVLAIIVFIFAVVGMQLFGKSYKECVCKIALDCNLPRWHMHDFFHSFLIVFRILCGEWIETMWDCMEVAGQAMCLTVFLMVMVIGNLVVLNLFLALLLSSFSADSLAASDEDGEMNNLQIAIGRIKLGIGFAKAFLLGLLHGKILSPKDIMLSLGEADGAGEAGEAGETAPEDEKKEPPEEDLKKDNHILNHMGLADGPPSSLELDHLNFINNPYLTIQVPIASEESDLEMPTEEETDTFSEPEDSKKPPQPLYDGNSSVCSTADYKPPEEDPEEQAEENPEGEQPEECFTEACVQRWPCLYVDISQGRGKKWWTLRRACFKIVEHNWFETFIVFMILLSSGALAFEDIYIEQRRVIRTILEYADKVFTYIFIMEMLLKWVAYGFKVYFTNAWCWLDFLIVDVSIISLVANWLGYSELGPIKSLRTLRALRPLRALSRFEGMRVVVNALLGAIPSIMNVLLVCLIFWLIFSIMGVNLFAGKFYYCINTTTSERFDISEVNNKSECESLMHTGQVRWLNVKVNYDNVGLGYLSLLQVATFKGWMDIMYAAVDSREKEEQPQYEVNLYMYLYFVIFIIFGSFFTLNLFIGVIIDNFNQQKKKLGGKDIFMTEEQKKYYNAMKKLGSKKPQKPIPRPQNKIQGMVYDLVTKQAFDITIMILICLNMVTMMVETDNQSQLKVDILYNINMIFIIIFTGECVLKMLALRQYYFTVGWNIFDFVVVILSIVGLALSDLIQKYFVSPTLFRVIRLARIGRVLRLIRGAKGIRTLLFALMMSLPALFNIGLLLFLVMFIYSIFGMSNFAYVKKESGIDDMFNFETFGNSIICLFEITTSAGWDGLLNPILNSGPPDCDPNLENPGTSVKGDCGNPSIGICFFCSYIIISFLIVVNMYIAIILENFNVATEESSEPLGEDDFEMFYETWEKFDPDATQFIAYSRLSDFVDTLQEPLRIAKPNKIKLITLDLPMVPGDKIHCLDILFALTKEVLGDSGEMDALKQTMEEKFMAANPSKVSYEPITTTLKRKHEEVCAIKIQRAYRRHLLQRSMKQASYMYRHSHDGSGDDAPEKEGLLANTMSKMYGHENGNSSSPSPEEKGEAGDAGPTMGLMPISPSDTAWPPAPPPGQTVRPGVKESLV

Structure (SMILES): CS(=O)(=O)CCNCCCc1cc(Cl)ccc1Oc1cc(F)c(S(=O)(=O)Nc2nccs2)cc1Cl [Compound 59, 5-chloro-4-(4-chloro-2-(3-((2-(methylsulfonyl)ethyl)amino)propyl)phenoxy)-2-fluoro-N-(thiazol-2-yl)benzenesulfonamide]
IC50 (NaV1.5): > 10 µM

IC50 (NaV1.3 [1]): > 10 µM | IC50 (NaV1.4): > 3 µM | IC50 (NaV1.8): > 10 µM | IC50 (NaV1.1): > 10 µM
Structure (SMILES): NC(=O)CNCCCc1cc(Cl)ccc1Oc1cc(F)c(S(=O)(=O)Nc2cscn2)cc1Cl [Compound 49, 2-((3-(5-chloro-2-(2-chloro-5-fluoro-4-(N-(thiazol-4-yl)sulfamoyl)phenoxy)phenyl)propyl)amino)acetamide]
general appearance and/or health ([2]; 60 mg/kg/day for 9 days, after treatment stopped on day 9): improvements in general appearance and/or health | food intake compared to the vehicle control group [2, 4]: significantly reduced | glucose level compared to the vehicle control group [2, 4]: significantly reduced | water intake compared to the vehicle control group [2, 4]: significantly reduced

IC50 (NaV1.4): > 3 µM | IC50 (NaV1.8): > 10 µM | IC50 (NaV1.1): > 10 µM | IC50 (NaV1.3 [3]): > 10 µM
Structure (SMILES): O=C(O)CCNC(=O)c1cc(-c2cc(Cl)ccc2Oc2cc(F)c(S(=O)(=O)Nc3ncns3)cc2Cl)ccn1 [Compound 1, 3-(4-(2-(4-(N-(1,2,4-thiadiazol-5-yl)sulfamoyl)-2-chloro-5-fluorophenoxy)-5-chlorophenyl)picolinamido)propanoic acid]

IC50 (NaV1.7): < 0.1 µM
Structure (SMILES): C#CCN(CCCc1cc(Cl)ccc1Oc1cc(F)c(S(=O)(=O)Nc2nccs2)cc1Cl)CC(=O)O [Compound 54, 2-((3-(5-chloro-2-(2-chloro-5-fluoro-4-(N-(thiazol-2-yl)sulfamoyl)phenoxy)phenyl)propyl)(prop-2-yn-1-yl)amino)acetic acid]
IC50 (NaV1.5): > 10 µM | IC50 (hNaV1.7): < 0.1 µM

Structure (SMILES): C=CCN(CCCc1cc(Cl)ccc1Oc1cc(F)c(S(=O)(=O)Nc2nccs2)cc1Cl)CC(=O)O [Compound 62, 2-(allyl(3-(5-chloro-2-(2-chloro-5-fluoro-4-(N-(thiazol-2-yl)sulfamoyl)phenoxy)phenyl)propyl)amino)acetic acid]
IC50 (NaV1.5): > 10 µM

Structure (SMILES): CCCN(CCCc1cc(Cl)ccc1Oc1cc(F)c(S(=O)(=O)Nc2nccs2)cc1Cl)CC(=O)O [Compound 65, 2-((3-(5-chloro-2-(2-chloro-5-fluoro-4-(N-(thiazol-2-yl)sulfamoyl)phenoxy)phenyl)propyl)(propyl)amino)acetic acid]
IC50 (NaV1.5): > 10 µM

Structure (SMILES): C#CCN(CCCc1cc(Cl)ccc1Oc1cc(F)c(S(=O)(=O)Nc2cscn2)cc1Cl)CC(=O)O [Compound 61, 2-((3-(5-chloro-2-(2-chloro-5-fluoro-4-(N-(thiazol-4-yl)sulfamoyl)phenoxy)phenyl)propyl)(prop-2-yn-1-yl)amino)acetic acid]
IC50 (NaV1.5): > 10 µM

Structure (SMILES): CN(CCCc1cc(Cl)ccc1Oc1cc(F)c(S(=O)(=O)Nc2cscn2)cc1Cl)CC(=O)O [Compound 47, 2-((3-(5-chloro-2-(2-chloro-5-fluoro-4-(N-(thiazol-4-yl)sulfamoyl)phenoxy)phenyl)propyl)(methyl)amino)acetic acid]
IC50 (NaV1.5): > 10 µM

Structure (SMILES): O=C(O)CCNCCCc1cc(Cl)ccc1Oc1cc(F)c(S(=O)(=O)Nc2nccs2)cc1F [Compound 43, 3-((3-(5-chloro-2-(2,5-difluoro-4-(N-(thiazol-2-yl)sulfamoyl)phenoxy)phenyl)propyl)amino)propanoic acid]
IC50 (NaV1.5): > 10 µM

Structure (SMILES): C#CCN(CCCc1cc(Cl)ccc1Oc1cc(F)c(S(=O)(=O)Nc2nccs2)cc1Cl)CCC(=O)O [Compound 66, 3-((3-(5-chloro-2-(2-chloro-5-fluoro-4-(N-(thiazol-2-yl)sulfamoyl)phenoxy)phenyl)propyl)(prop-2-yn-1-yl)amino)propanoic acid]
IC50 (NaV1.5): > 10 µM

Structure (SMILES): NC(=O)CNCCCc1cc(Cl)ccc1Oc1cc(F)c(S(=O)(=O)Nc2nccs2)cc1Cl [Compound 63, 2-((3-(5-chloro-2-(2-chloro-5-fluoro-4-(N-(thiazol-2-yl)sulfamoyl)phenoxy)phenyl)propyl)amino)acetamide]
IC50 (NaV1.5): > 10 µM

Structure (SMILES): NC(=O)CNCCCc1ccccc1Oc1cc(F)c(S(=O)(=O)Nc2cscn2)cc1Cl [Compound 60, 2-((3-(2-(2-chloro-5-fluoro-4-(N-(thiazol-4-yl)sulfamoyl)phenoxy)phenyl)propyl)amino)acetamide]
IC50 (NaV1.5): > 10 µM
